Converted amounts (≈) assume the structure as drawn. The source made the active and inactive calls. No cut-off for these calls is given here.
Experiments:
Peritoneal macrophage [1] = experiment: Cytotoxicity against mouse peritoneal macrophages at 4 uM incubated for 3.5 hrs by MTT assay; format: toxicity, cell-based
Peritoneal macrophage [2] = experiment: Antiinflammatory activity against LPS-stimulated mouse peritoneal macrophage assessed as TNF-alpha level at 2 uM treated for 3 hrs followed by ATP addition measured after 30 mins by ELISA method relative to control; format: functional; settings: time 3.5 hrs
Peritoneal macrophage [3] = experiment: Antiinflammatory activity against LPS-stimulated mouse peritoneal macrophage assessed as IL-6 level at 2 uM treated for 3 hrs followed by ATP addition measured after 30 mins by ELISA method; format: functional, cell-based; settings: time 3.5 hrs
Peritoneal macrophage [4] = experiment: Antiinflammatory activity against LPS-stimulated mouse peritoneal macrophage assessed as IL-1beta level at 2 uM treated for 3 hrs followed by ATP addition measured after 30 mins by ELISA method relative to control; format: functional; settings: time 3.5 hrs
Peritoneal macrophage [5] = experiment: Antiinflammatory activity against LPS-stimulated mouse peritoneal macrophage assessed as IL-6 level at 2 uM treated for 3 hrs followed by ATP addition measured after 30 mins by ELISA method relative to control; format: functional; settings: time 3.5 hrs
Peritoneal macrophage [6] = experiment: Antiinflammatory activity against LPS-stimulated mouse peritoneal macrophage assessed as inhibition of IL-1beta secretion treated for 3 hrs followed by ATP addition measured after 30 mins by ELISA method; format: functional, cell-based
Peritoneal macrophage [7] = experiment: Antiinflammatory activity against LPS-stimulated mouse peritoneal macrophage assessed as TNF-alpha level at 2 uM treated for 3 hrs followed by ATP addition measured after 30 mins by ELISA method; format: functional, cell-based; settings: time 3.5 hrs
[8] = Aqueous solubility of compound incubated for 24 hrs by HPLC analysis; format: physicochemical; settings: buffer
[9] = Metabolic stability in human liver microsomes assessed as half life at 20 uM measured upto 120 mins in presence of NADPH by LC-MS/MS analysis; format: ADME, Microsome
[10] = Metabolic stability in mouse liver microsomes assessed as half life at 20 uM measured upto 120 mins in presence of NADPH by LC-MS/MS analysis; format: ADME, Microsome
[11] = Metabolic stability in human liver microsomes assessed as intrinsic clearance at 20 uM measured upto 120 mins in presence of NADPH by LC-MS/MS analysis; format: ADME, Microsome; settings: read-out: CLH
[12] = Metabolic stability in mouse liver microsomes assessed as intrinsic clearance at 20 uM measured upto 120 mins in presence of NADPH by LC-MS/MS analysis; format: ADME, Microsome; settings: read-out: CLH

Row | IC50 (Peritoneal macrophage [6]) | solubility [8] | half-life at 20 µM [9] | half-life at 20 µM [10] | microsomal CLint at 20 µM [11] | microsomal CLint at 20 µM [12] | Compound | Activity (Peritoneal macrophage [1]) | Activity (Peritoneal macrophage [2]) | Activity (Peritoneal macrophage [3]) | Activity (Peritoneal macrophage [4]) | Activity (Peritoneal macrophage [5]) | Activity (Peritoneal macrophage [7])
1 |  |  |  |  |  |  | Cc1cccc2c3c(ccc12)-c1oc2c(c1C(=O)C3=O)CCN(CC(=O)N1CCN(C)CC1)C2 | Non-Toxic | 35% | inactive | 77% |  | 
2 |  |  |  |  |  |  | COC(=O)CCCN1CCc2c(oc3c2C(=O)C(=O)c2c-3ccc3c(C)cccc23)C1 | Non-Toxic | 43% |  | 67% | 32% | 
3 |  |  |  |  |  |  | Cc1cccc2c3c(ccc12)-c1oc2c(c1C(=O)C3=O)CCN(CCN1CCN(C)CC1)C2 | Non-Toxic | 19% | inactive | 61% |  | 
4 |  |  |  |  |  |  | Cc1cccc2c3c(ccc12)-c1oc2c(c1C(=O)C3=O)CCN(CCS(C)(=O)=O)C2 | Non-Toxic | 46% | inactive | 90% |  | 
5 |  |  |  |  |  |  | Cc1cccc2c3c(ccc12)-c1oc2c(c1C(=O)C3=O)CCN(CCCN(C)C)C2 | Non-Toxic | 19% |  | 95% | 8% | 
6 | 383 nM |  |  |  |  |  | Cc1cccc2c3c(ccc12)-c1oc2c(c1C(=O)C3=O)CCN([C@@H](C)C(=O)N1CCN(C)CC1)C2 | Non-Toxic | 33% | inactive | 97% |  | 
7 |  |  |  |  |  |  | Cc1cccc2c3c(ccc12)-c1oc2c(c1C(=O)C3=O)CCN(C)C2 | Non-Toxic | 16% |  | 40% | 18% | 
8 |  |  |  |  |  |  | Cc1cccc2c3c(ccc12)-c1oc2c(c1C(=O)C3=O)CCN(CCN1CCCC1)C2 | Non-Toxic |  | inactive | 73% |  | inactive
9 |  |  |  |  |  |  | CNC(=O)CN1CCc2c(oc3c2C(=O)C(=O)c2c-3ccc3c(C)cccc23)C1 | Non-Toxic | 36% |  | 92% | 19% | 
10 |  |  |  |  |  |  | Cc1cccc2c3c(ccc12)-c1oc2c(c1C(=O)C3=O)CCN(CCN1CCCCC1)C2 | Non-Toxic |  | inactive | 41% |  | inactive
11 |  |  |  |  |  |  | Cc1cccc2c3c(ccc12)-c1oc2c(c1C(=O)C3=O)CCN(CCn1ccnc1)C2 | Non-Toxic | 29% | inactive | 96% |  | 
12 | 65 nM | 0.45 µg/mL (≈ 1.07 µM) | 3.73 h | 6.08 h | 6.2 µL/min/mg | 3.8 µL/min/mg | Cc1cccc2c3c(ccc12)-c1oc2c(c1C(=O)C3=O)CCN([C@H](CO)CCCO)C2 | Non-Toxic | 41% |  | 99% | 10% | 
13 |  |  |  |  |  |  | COC(=O)CC[C@@H](C(=O)OC)N1CCc2c(oc3c2C(=O)C(=O)c2c-3ccc3c(C)cccc23)C1 | Non-Toxic | 58% |  | 65% | 41% | 
14 |  |  |  |  |  |  | Cc1cccc2c3c(ccc12)-c1oc2c(c1C(=O)C3=O)CCN([C@@H](C)CO)C2 | Non-Toxic | 40% | inactive | 49% |  | 
15 |  |  |  |  |  |  | COC(=O)CN1CCc2c(oc3c2C(=O)C(=O)c2c-3ccc3c(C)cccc23)C1 | Non-Toxic | 31% |  | 70% | 6% | 
16 |  | 6.34 µg/mL |  |  |  |  | Cc1cccc2c3c(ccc12)-c1oc2c(c1C(=O)C3=O)CCN([C@H](CO)CCCO)C2.Cl | Non-Toxic | 16% |  | 96% | 6% | 
17 |  |  |  |  |  |  | Cc1cccc2c3c(ccc12)-c1oc2c(c1C(=O)C3=O)CCN(CCN(C)C)C2 | Non-Toxic | 20% |  | 88% | 3% | 
18 |  |  |  |  |  |  | CCN1CCc2c(oc3c2C(=O)C(=O)c2c-3ccc3c(C)cccc23)C1 | Non-Toxic |  | inactive | 67% |  | inactive
19 | 273 nM |  |  |  |  |  | Cc1cccc2c3c(ccc12)-c1oc2c(c1C(=O)C3=O)CCN(CCN1CCOCC1)C2 | Non-Toxic | 26% | inactive | 99% |  | 
20 |  |  |  |  |  |  | Cc1cccc2c3c(ccc12)-c1oc2c(c1C(=O)C3=O)CCN(CCCN1CC[C@@H](O)C1)C2 | Non-Toxic | 33% | inactive | 92% |  | 

Row | IC50 (Peritoneal macrophage [6]) | solubility [8] | half-life at 20 µM [9] | half-life at 20 µM [10] | microsomal CLint at 20 µM [11] | microsomal CLint at 20 µM [12] | Compound | Activity (Peritoneal macrophage [1]) | Activity (Peritoneal macrophage [2]) | Activity (Peritoneal macrophage [3]) | Activity (Peritoneal macrophage [4]) | Activity (Peritoneal macrophage [5]) | Activity (Peritoneal macrophage [7])
21 |  |  |  |  |  |  | COC(=O)[C@H](Cc1ccccc1)N1CCc2c(oc3c2C(=O)C(=O)c2c-3ccc3c(C)cccc23)C1 | Non-Toxic | 24% | inactive | 23% |  | 
22 |  |  |  |  |  |  | Cc1cccc2c3c(ccc12)-c1oc2c(c1C(=O)C3=O)CCN(CCCN1CCC(N3CCOCC3)CC1)C2 | Non-Toxic | 40% | inactive | 88% |  | 
23 |  |  |  |  |  |  | CCCCN1CCc2c(oc3c2C(=O)C(=O)c2c-3ccc3c(C)cccc23)C1 | Non-Toxic | 14% | inactive | 38% |  | 
24 |  |  | 0.0795 h | 0.352 h | 290 µL/min/mg | 65.6 µL/min/mg | Cc1coc2c1C(=O)C(=O)c1c-2ccc2c(C)cccc12 [TANSHINONE I] | Non-Toxic | 55% | inactive | 69% |  | 
25 | 2920 nM |  |  |  |  |  | Cc1cccc2c3c(ccc12)-c1oc2c(c1C(=O)C3=O)CCN([C@@H](C)C(=O)N1CCOCC1)C2 | Non-Toxic | 52% | inactive | 98% |  | 
26 |  |  |  |  |  |  | Cc1cccc2c3c(ccc12)-c1oc2c(c1C(=O)C3=O)CCN(CCCN1CCN(C)CC1)C2 | Non-Toxic | 51% | inactive | 95% |  | 
27 |  |  |  |  |  |  | COC(=O)[C@H](C)N1CCc2c(oc3c2C(=O)C(=O)c2c-3ccc3c(C)cccc23)C1 | Non-Toxic | 25% | inactive | 65% |  | 
28 |  |  |  |  |  |  | Cc1cccc2c3c(ccc12)-c1oc2c(c1C(=O)C3=O)CCN(CCCN1CCCC1)C2 | Non-Toxic | 13% |  | 94% | 31% | 
29 |  |  |  |  |  |  | Cc1cccc2c3c(ccc12)-c1oc2c(c1C(=O)C3=O)CCN(CCC(=O)N1CCOCC1)C2 | Non-Toxic | 10% | inactive | 92% |  | 
30 |  | 11.89 µg/mL |  |  |  |  | Cc1cccc2c3c(ccc12)-c1oc2c(c1C(=O)C3=O)CCN(CCCN1CCOCC1)C2.Cl | Non-Toxic | 24% |  | 91% | 12% | 
31 |  |  |  |  |  |  | Cc1cccc2c3c(ccc12)-c1oc2c(c1C(=O)C3=O)CCN([C@H](CO)Cc1ccccc1)C2 | Non-Toxic | 45% |  | 56% | 9% | 
32 | 368 nM |  |  |  |  |  | Cc1cccc2c3c(ccc12)-c1oc2c(c1C(=O)C3=O)CCN(CC(=O)N1CCOCC1)C2 | Non-Toxic | 36% |  | 96% | 24% | 
33 |  |  |  |  |  |  | Cc1cccc2c3c(ccc12)-c1oc2c(c1C(=O)C3=O)CCN(CC(=O)N(C)C)C2 | Non-Toxic | 52% |  | 71% | 11% | 
34 |  |  |  |  |  |  | Cc1cccc2c3c(ccc12)-c1oc2c(c1C(=O)C3=O)CCNC2 | Non-Toxic | 22% |  | 16% | 13% | 
35 |  | 2.45 µg/mL |  |  |  |  | Cc1cccc2c3c(ccc12)-c1oc2c(c1C(=O)C3=O)CCN(CCO)C2.Cl | Non-Toxic | 22% |  | 99% |  | 
36 |  |  |  |  |  |  | CC(C)(O)c1coc(S(=O)(=O)NC(=O)Nc2c3c(cc4c2CCC4)CCC3)c1 |  | 12% | inactive | 98% |  | 
37 |  |  |  |  |  |  | Cc1cccc2c3c(ccc12)-c1oc2c(c1C(=O)C3=O)CCN(CCCn1ccnc1)C2 | Non-Toxic | 17% | inactive | 95% |  | 
38 |  |  |  |  |  |  | CNC(=O)[C@H](C)N1CCc2c(oc3c2C(=O)C(=O)c2c-3ccc3c(C)cccc23)C1 | Non-Toxic | 31% | inactive | 96% |  | 
39 | 114 nM | 0.34 µg/mL (≈ 0.941 µM) | 11.6 h | 3.03 h | 2 µL/min/mg | 7.64 µL/min/mg | Cc1cccc2c3c(ccc12)-c1oc2c(c1C(=O)C3=O)CCN(CCO)C2 | Non-Toxic | 40% |  | 96% | 7% | 
40 |  |  |  |  |  |  | COC(=O)CCN1CCc2c(oc3c2C(=O)C(=O)c2c-3ccc3c(C)cccc23)C1 | Non-Toxic | 46% |  | 87% | 34% | 

From ChEMBL document CHEMBL5380810, “Scaffold Hybrid of the Natural Product Tanshinone I with Piperidine for the Discovery of a Potent NLRP3 Inflammasome Inhibitor” (J Med Chem, 2023)
